In ChEMBL document CHEMBL1148644, “Human PEPT1 pharmacophore distinguishes between dipeptide transport and binding” (J Med Chem, 2006):
pEC50, pIC50: −log10 of the molar value. Where a SMILES comes first, the peptide text is derived from it. [ ]: non-standard residue; d: D form. Tic = O=C(O)[C@@H]1Cc2ccccc2CN1; Sar = CNCC(=O)O

Columns and labels:
[1] = biological target: T1, Solute carrier family 15 member 1 (Homo sapiens, UniProt P46059); test: Binding affinity to human PEPT1 assessed as inhibition of [14C]Gly-Sar uptake in MDCK cells; assay type: functional, cell-based; settings: for IC50: mdck; for pIC50: read-out: IC50
T1 sequence (P46059 whole entry): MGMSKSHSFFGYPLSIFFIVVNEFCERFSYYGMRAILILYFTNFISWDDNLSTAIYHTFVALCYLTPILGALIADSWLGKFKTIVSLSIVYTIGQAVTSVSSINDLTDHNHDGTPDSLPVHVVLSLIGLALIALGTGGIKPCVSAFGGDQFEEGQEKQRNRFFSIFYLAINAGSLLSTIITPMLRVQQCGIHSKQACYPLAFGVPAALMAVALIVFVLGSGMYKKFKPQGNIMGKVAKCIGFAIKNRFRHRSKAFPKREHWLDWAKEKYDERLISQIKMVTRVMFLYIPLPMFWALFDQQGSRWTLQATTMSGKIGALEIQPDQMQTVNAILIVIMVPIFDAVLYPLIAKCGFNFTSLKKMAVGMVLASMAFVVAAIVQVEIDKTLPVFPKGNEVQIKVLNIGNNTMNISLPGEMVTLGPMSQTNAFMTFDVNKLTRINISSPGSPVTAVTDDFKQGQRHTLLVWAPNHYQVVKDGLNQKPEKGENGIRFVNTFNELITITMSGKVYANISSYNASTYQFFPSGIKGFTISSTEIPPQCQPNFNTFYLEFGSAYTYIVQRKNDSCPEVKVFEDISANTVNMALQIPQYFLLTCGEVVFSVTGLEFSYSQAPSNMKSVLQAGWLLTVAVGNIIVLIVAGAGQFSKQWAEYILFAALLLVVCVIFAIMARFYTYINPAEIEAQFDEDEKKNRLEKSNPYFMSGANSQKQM

[2] = biological target: T1, Solute carrier family 15 member 1; test: Activation of human PEPT1 expressed in MDCK cells; assay type: functional, cell-based

SMILES | IC50 [1] | pEC50 [2] | pIC50 [1]
NCCC[C@H](NC(=O)[C@@H](N)CCCN)C(=O)O | Not Active | – | –
NCCCC[C@H](N)C(=O)N1CCC[C@@H]1C(=O)O | – | 3.72 | 3.41
N[C@@H](Cc1c[nH]cn1)C(=O)N[C@@H](Cc1c[nH]c2ccccc12)C(=O)O | – | 3.72 | 3.02
C[C@H](NC(=O)[C@@H](N)Cc1ccccc1)C(N)=O | – | 3.07 | 2.52
C[C@H](NC(=O)[C@@H](N)Cc1ccc(O)cc1)C(=O)O | – | 4.00 | 3.96
NC(=O)CNC(=O)[C@@H](N)Cc1ccc(O)cc1 | Not Active | – | –
N[C@@H](Cc1c[nH]cn1)C(=O)N[C@@H](Cc1c[nH]cn1)C(=O)O | – | 3.43 | 3.40
NCCCC[C@H](NC(=O)[C@@H](N)CCCCN)C(=O)O | – | – | 1.96
NCC(=O)NCC(=O)NCC(=O)O | – | 3.24 | 2.97
CC(C)C[C@H](NC(=O)CN)C(=O)O | – | 3.77 | 4.15
C[C@H](N)C(=O)N[C@@H](Cc1ccccc1)C(=O)O | – | 4.10 | 4.15
N[C@@H](Cc1ccc(O)cc1)C(=O)NCC(=O)O | – | 3.62 | 3.48
CC(=O)N[C@@H](Cc1ccccc1)C(=O)N[C@@H](Cc1ccc(O)cc1)C(N)=O (Ac-Phe-Tyr-NH2) | Not Active | – | –
C[C@H](N)C(=O)N[C@@H](C)C(=O)O (H-Ala-Ala-OH) | – | 4.10 | 3.60
C[C@H](N)C(=O)N[C@@H](CC(=O)O)C(=O)O (H-Ala-Asp-OH) | – | 3.64 | 3.35
C[C@H](N)C(=O)N[C@@H](CCCCN)C(=O)O (H-Ala-Lys-OH) | – | 3.66 | 3.55
C[C@H](N)C(=O)N[C@@H](Cc1c[nH]c2ccccc12)C(=O)O (H-Ala-Trp-OH) | – | 4.10 | 3.59
C[C@H](N)C(=O)N[C@@H](Cc1ccc(O)cc1)C(=O)O (H-Ala-Tyr-OH) | – | 4.22 | 3.77
NC(N)=NCCC[C@H](NC(=O)[C@@H](N)CCCN=C(N)N)C(=O)O (H-Arg-Arg-OH) | – | – | 2.14
NC(N)=NCCC[C@H](N)C(=O)NCC(=O)O (H-Arg-Gly-OH) | – | 3.57 | 3.41
NCCCC[C@H](NC(=O)[C@@H](N)CCCN=C(N)N)C(=O)O (H-Arg-Lys-OH) | – | – | 2.09
N[C@@H](CC(=O)O)C(=O)N[C@@H](CC(=O)O)C(=O)O (H-Asp-Asp-OH) | – | 3.00 | 3.20
N[C@@H](CC(=O)O)C(=O)NCC(=O)O (H-Asp-Gly-OH) | – | 3.36 | 3.09
N[C@@H](CC(=O)O)C(=O)N[C@@H](Cc1c[nH]c2ccccc12)C(=O)O (H-Asp-Trp-OH) | – | 3.33 | 2.88
CC(C)[C@H](NC(=O)[C@@H](N)CC(=O)O)C(=O)O (H-Asp-Val-OH) | – | 3.16 | 3.51

SMILES | IC50 [1] | pEC50 [2] | pIC50 [1]
NCC(=O)NCC(=O)NCC(=O)NCC(=O)O (H-GGGG-OH) | Not Active | – | –
NC(=O)CC[C@H](NC(=O)[C@@H](N)CCC(N)=O)C(=O)O (H-Gln-Gln-OH) | – | 4.00 | 3.82
NC(=O)CC[C@H](N)C(=O)N[C@@H](CCC(=O)O)C(=O)O (H-Gln-Glu-OH) | – | 3.38 | 3.29
N[C@@H](CCC(=O)O)C(=O)N[C@@H](CCC(=O)O)C(=O)O (H-Glu-Glu-OH) | – | 3.00 | 3.21
N[C@@H](CCC(=O)O)C(=O)NCC(=O)O (H-Glu-Gly-OH) | – | 3.29 | 3.41
NCCCC[C@H](NC(=O)[C@@H](N)CCC(=O)O)C(=O)O (H-Glu-Lys-OH) | – | 3.51 | 3.14
NCC(=O)N[C@@H](CC(=O)O)C(=O)O (H-Gly-Asp-OH) | – | 3.26 | 3.42
NCC(=O)N[C@@H](CCC(=O)O)C(=O)O (H-Gly-Glu-OH) | – | 2.96 | 3.19
NCC(=O)NCC(=O)NCC(N)=O (H-Gly-Gly-Gly-NH2) | Not Active | – | –
NCC(=O)NCC(=O)O (H-Gly-Gly-OH) | – | 3.32 | 3.09
NCC(=O)N[C@@H](Cc1c[nH]cn1)C(=O)O (H-Gly-His-OH) | – | 3.40 | 3.09
CC(C)C[C@H](NC(=O)CN)C(=O)NCC(=O)O (H-Gly-Leu-Gly-OH) | – | 3.68 | 3.62
CC(C)C[C@H](NC(=O)CN)C(=O)N[C@@H](Cc1ccccc1)C(=O)O (H-Gly-Leu-Phe-OH) | – | 3.55 | 3.01
NCCCC[C@H](NC(=O)CN)C(=O)O (H-Gly-Lys-OH) | – | 3.12 | 2.90
NCC(=O)N[C@@H](Cc1ccccc1)C(N)=O (H-Gly-Phe-NH2) | Not Active | – | –
NCC(=O)N[C@@H](Cc1ccccc1)C(=O)O (H-Gly-Phe-OH) | – | 3.89 | 3.77
NCC(=O)N[C@@H](Cc1c[nH]c2ccccc12)C(=O)O (H-Gly-Trp-OH) | – | 3.48 | 3.28
NCC(=O)N[C@@H](Cc1ccc(O)cc1)C(N)=O (H-Gly-Tyr-NH2) | Not Active | – | –
NCC(=O)N[C@@H](Cc1ccc(O)cc1)C(=O)O (H-Gly-Tyr-OH) | – | 3.85 | 3.92
N[C@@H](Cc1c[nH]cn1)C(=O)NCC(=O)O (H-His-Gly-OH) | – | 3.55 | 3.47
NCCCC[C@H](N)C(=O)N[C@@H](CCCN=C(N)N)C(=O)O (H-Lys-Arg-OH) | – | – | 2.14
NCCCC[C@H](N)C(=O)N[C@@H](CCC(=O)O)C(=O)O (H-Lys-Glu-OH) | – | 3.28 | 3.09
NCCCC[C@H](N)C(=O)NCC(=O)O (H-Lys-Gly-OH) | – | 3.49 | 3.42
NCCCC[C@H](N)C(=O)N[C@@H](Cc1c[nH]c2ccccc12)C(=O)O (H-Lys-Trp-OH) | – | – | 3.18
CC(C)[C@H](NC(=O)[C@@H](N)CCCCN)C(=O)O (H-Lys-Val-OH) | – | 3.85 | 3.60

SMILES | IC50 [1] | pEC50 [2] | pIC50 [1]
N[C@@H](Cc1ccccc1)C(=O)NCC(=O)O (H-Phe-Gly-OH) | – | 3.96 | 3.77
NC(=O)[C@H](Cc1ccc(O)cc1)NC(=O)[C@@H](N)Cc1ccccc1 (H-Phe-Tyr-NH2) | – | 4.52 | 4.70
O=C(O)C[C@H](NC(=O)[C@@H]1CCCN1)C(=O)O (H-Pro-Asp-OH) | – | < 2.30 | 2.04
O=C(O)CC[C@H](NC(=O)[C@@H]1CCCN1)C(=O)O (H-Pro-Glu-OH) | – | < 2.30 | 1.91
O=C(O)CNC(=O)[C@@H]1CCCN1 (H-Pro-Gly-OH) | – | – | < 1.80
CC(C)C[C@H](NC(=O)[C@@H]1CCCN1)C(=O)O (H-Pro-Leu-OH) | – | 3.60 | 3.21
NCCCC[C@H](NC(=O)[C@@H]1CCCN1)C(=O)O (H-Pro-Lys-OH) | – | – | < 1.80
O=C(O)[C@@H]1CCCN1C(=O)[C@@H]1CCCN1 (H-Pro-Pro-OH) | – | 3.15 | 3.10
O=C(O)[C@H](CO)NC(=O)[C@@H]1CCCN1 (H-Pro-Ser-OH) | – | 2.80 | < 1.80
N[C@@H](CO)C(=O)N[C@@H](CO)C(=O)O (H-Ser-Ser-OH) | – | 3.85 | 3.89
C[C@H](NC(=O)[C@@H](N)Cc1c[nH]c2ccccc12)C(=O)O (H-Trp-Ala-OH) | – | 4.00 | 3.59
N[C@@H](Cc1c[nH]c2ccccc12)C(=O)NCC(=O)O (H-Trp-Gly-OH) | – | 3.59 | 3.14
N[C@@H](Cc1c[nH]c2ccccc12)C(=O)N[C@@H](Cc1c[nH]c2ccccc12)C(=O)O (H-Trp-Trp-OH) | – | – | 3.60
N[C@@H](Cc1c[nH]c2ccccc12)C(=O)N[C@@H](Cc1ccc(O)cc1)C(=O)O (H-Trp-Tyr-OH) | – | – | 4.10
CC(C)[C@H](NC(=O)[C@@H](N)Cc1c[nH]c2ccccc12)C(=O)O (H-Trp-Val-OH) | – | 4.30 | 4.05
N[C@@H](Cc1ccc(O)cc1)C(=O)N[C@@H](Cc1c[nH]c2ccccc12)C(=O)O (H-Tyr-Trp-OH) | – | – | 4.00
NC(=O)[C@H](Cc1ccc(O)cc1)NC(=O)[C@@H](N)Cc1ccc(O)cc1 (H-Tyr-Tyr-NH2) | – | – | 2.04
N[C@@H](Cc1ccc(O)cc1)C(=O)N[C@@H](Cc1ccc(O)cc1)C(=O)O (H-Tyr-Tyr-OH) | – | 4.22 | 4.22
NC(=O)[C@@H]1Cc2ccccc2CN1C(=O)[C@@H](N)Cc1ccc(O)cc1 (H-Tyr-[Tic]-NH2) | Not Active | – | –
CC(C)[C@H](N)C(=O)N[C@H](C(=O)N[C@H](C(=O)O)C(C)C)C(C)C (H-Val-Val-Val-OH) | – | 3.68 | 3.64
NCC(=O)N1CCC[C@H]1C(=O)O [GLYCYL PROLINE] (H-Gly-Pro-OH) | – | 3.89 | 3.48
CN(CC(=O)O)C(=O)CN [GLYCYLSARCOSINE] (H-Gly-[Sar]-OH) | – | 3.27 | 2.94
CC(C)C[C@H](NC(=O)[C@@H](N)CC(C)C)C(=O)O [LEU-LEU] | – | 4.10 | 3.77
CC(C)[C@H](N)C(=O)N[C@H](C(=O)O)C(C)C [VAL-VAL] (H-Val-Val-OH) | – | 4.15 | 3.68
